# Literature values in patent US20090253799A1 (priority 2008, published 2009).
# Molecular target: T1, wildtype CFTR (Homo sapiens, UniProt P13569)
# T1 construct: expressed in transfected cells
# Details: Muanprasat et al. 2004
# T1 sequence (P13569 whole entry): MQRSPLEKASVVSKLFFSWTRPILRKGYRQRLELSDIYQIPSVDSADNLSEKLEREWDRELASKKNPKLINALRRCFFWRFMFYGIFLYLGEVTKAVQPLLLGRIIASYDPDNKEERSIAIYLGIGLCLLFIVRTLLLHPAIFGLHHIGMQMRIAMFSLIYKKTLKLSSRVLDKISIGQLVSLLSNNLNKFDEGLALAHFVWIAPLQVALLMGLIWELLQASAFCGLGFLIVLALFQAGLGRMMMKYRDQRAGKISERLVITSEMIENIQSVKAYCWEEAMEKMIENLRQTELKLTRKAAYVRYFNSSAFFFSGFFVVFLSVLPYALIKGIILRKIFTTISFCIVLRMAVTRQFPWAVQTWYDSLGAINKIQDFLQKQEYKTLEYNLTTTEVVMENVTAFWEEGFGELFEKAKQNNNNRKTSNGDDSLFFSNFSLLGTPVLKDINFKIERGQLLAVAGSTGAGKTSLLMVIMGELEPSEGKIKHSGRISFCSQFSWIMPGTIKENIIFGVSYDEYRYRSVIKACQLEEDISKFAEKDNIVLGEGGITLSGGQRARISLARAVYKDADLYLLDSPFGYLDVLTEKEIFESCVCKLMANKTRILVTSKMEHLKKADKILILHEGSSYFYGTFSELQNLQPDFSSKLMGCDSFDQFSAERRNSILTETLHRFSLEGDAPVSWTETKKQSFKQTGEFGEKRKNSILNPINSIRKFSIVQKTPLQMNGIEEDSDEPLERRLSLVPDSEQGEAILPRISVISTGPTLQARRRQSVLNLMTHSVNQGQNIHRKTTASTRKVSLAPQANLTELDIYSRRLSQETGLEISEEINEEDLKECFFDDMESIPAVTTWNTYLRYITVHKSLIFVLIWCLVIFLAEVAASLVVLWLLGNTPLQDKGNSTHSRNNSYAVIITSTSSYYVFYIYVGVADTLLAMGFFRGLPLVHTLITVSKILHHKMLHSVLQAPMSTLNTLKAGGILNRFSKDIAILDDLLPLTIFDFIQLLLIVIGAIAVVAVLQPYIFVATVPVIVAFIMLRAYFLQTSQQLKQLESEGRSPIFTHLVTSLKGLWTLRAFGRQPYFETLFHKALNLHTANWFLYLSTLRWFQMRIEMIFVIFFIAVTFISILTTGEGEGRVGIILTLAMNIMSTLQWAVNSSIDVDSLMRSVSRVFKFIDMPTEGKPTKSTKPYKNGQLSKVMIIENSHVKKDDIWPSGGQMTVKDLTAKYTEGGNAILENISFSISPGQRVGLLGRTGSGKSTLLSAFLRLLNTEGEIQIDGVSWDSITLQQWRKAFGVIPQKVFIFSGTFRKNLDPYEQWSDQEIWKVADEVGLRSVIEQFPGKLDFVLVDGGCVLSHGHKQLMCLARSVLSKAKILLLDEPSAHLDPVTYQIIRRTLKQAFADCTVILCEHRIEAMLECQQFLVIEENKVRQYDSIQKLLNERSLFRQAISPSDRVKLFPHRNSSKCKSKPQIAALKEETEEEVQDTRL
smiles,measurement,value
O=C(CNc1ccc2ccccc2c1)N/N=C/c1cc(Br)c(O)c(Br)c1O [GlyH-101],time constants for block and unblock,8 to 10 ms
